The source of these data is patent publication US7605173B2, “Pharmaceutical liquid composition containing pyridone derivative” (KDL, Inc., priority 2002, dated 2009).

Molecules are shown by their SMILES.

The conditions of data set [1]: cited from earlier work.
Data set [2] can be described thus: Dissolving Pirfenidone in diethylene glycol monoethyl ether (attainable concentration). In kind it is physicochemical. Particulars: solvent diethylene glycol monoethyl ether. The protocol: That is, the diethylene glycol monoethyl ether was charged to a suitable container and warmed to 60° C. The Pirfenidone was added while stirring and a yellowish solution was obtained by continuing the stirring until the mixture was transparent. All the remaining ingredients as listed in Table 1 were dissolved in water at 60° C. and this solution was poured into the above Pirfenidone solution and the stirring was continued until mixed uniformly. The so obtained solution was protected from the light.
That is, the diethylene glycol monoethyl ether was charged to a suitable container and warmed to 60° C., and the Pirfenidone was added while stirring and a yellowish solution was obtained by continuing the stirring until the whole became transparent. Furthermore, the α-tocopherol was added and water was added while stirring until mixed uniformly. Then, the hydroxypropyl cellulose was added because of its necessity and stirred until a homogenous dispersion was formed. Furthermore, the dispersion was allowed to stand overnight until the particles of hydroxypropyl cellulose, the concentrating agent, were expanded, and finally the product was homogenized. The so obtained dispersion was allowed to stand overnight and a solution in the desired concentration was obtained. The solution was homogenized again and protected from light.

In the case of `Cc1ccc(=O)n(-c2ccccc2)c1` [Pirfenidone, 5-methyl-1-phenyl-2-(1H)-pyridone], in data set [1], the solubility in water result is “slightly soluble in water”. Further, in data set [2], the “concentration of Pirfenidone that can be dissolved” value is reported as approximately 25 % by weight.
